# Laboratory results reported in ChEMBL document CHEMBL1201862, “PubChem BioAssay data set” (2004).
#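 All cell lines were grown in 96-well plates and treated with compound for 48 hours. Abbreviation: GI50, concentration required for 50% inhibition of growth.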 Active and inactive are the calls of the source. Rule as the data show it: active = GI50 up to about 1.1 µM and inactive = higher.
# Key:
# Assay in all cases: DTP human tumour cell line panel, 48 h
# CCRF-CEM = tested on: CCRF-CEM
# XF498 = tested on: XF498
# LOX IMVI = tested on: LOX IMVI
# TK-10 = tested on: TK-10
# Malme-3M = tested on: Malme-3M
# KM12 = tested on: KM12
# SW-620 = tested on: SW-620
# K562 = tested on: K562
# RXF 393 = tested on: RXF 393
# MOLT-4 = tested on: MOLT-4
# UO-31 = tested on: UO-31
# HOP-92 = tested on: HOP-92
# HCT-15 = tested on: HCT-15
# SNB-19 = tested on: SNB-19
# HCC 2998 = tested on: HCC 2998
# NCI-H460 = tested on: NCI-H460
# SK-MEL-2 = tested on: SK-MEL-2
# CAKI-1 = tested on: CAKI-1
# EKVX = tested on: EKVX
# SK-MEL-5 = tested on: SK-MEL-5
# SNB-75 = tested on: SNB-75
# OVCAR-4 = tested on: OVCAR-4
# HCT-116 = tested on: HCT-116
# SN12C = tested on: SN12C
# SNB-78 = tested on: SNB-78
# OVCAR-3 = tested on: OVCAR-3
# U-251 = tested on: U-251
# SK-MEL-28 = tested on: SK-MEL-28
# HOP-62 = tested on: HOP-62
# HL-60 = tested on: HL-60
# SF-539 = tested on: SF-539
# OVCAR-8 = tested on: OVCAR-8
# 786-0 = tested on: 786-0
# NCI-H522 = tested on: NCI-H522
# SK-OV-3 = tested on: SK-OV-3
# DLD-1 = tested on: DLD-1
# COLO 205 = tested on: COLO 205
# A549 = tested on: A549
# NCI-H23 = tested on: NCI-H23
# UACC-257 = tested on: UACC-257
# OVCAR-5 = tested on: OVCAR-5
# NCI-H226 = tested on: NCI-H226
# M14 = tested on: M14
# SF-295 = tested on: SF-295
# LXFL 529 = tested on: LXFL 529
# RPMI-8226 = tested on: RPMI-8226
# A498 = tested on: A498
# M19-MEL = tested on: M19-MEL
# ACHN = tested on: ACHN
# DMS-114 = tested on: DMS-114
# HT-29 = tested on: HT-29
# DMS-273 = tested on: DMS-273
# KM-20L2 = tested on: KM-20L2
# IGROV-1 = tested on: IGROV-1
# UACC-62 = tested on: UACC-62
# SF-268 = tested on: SF-268
# SR = tested on: SR
smiles,measurement,setting,value
OC(c1ccccn1)C1CNc2ccccc21 (stereo unspecified),GI50,CCRF-CEM,> 100 µM (inactive)
same,GI50,XF498,> 100 µM (inactive)
same,GI50,LOX IMVI,> 100 µM (inactive)
same,GI50,TK-10,> 100 µM (inactive)
same,GI50,Malme-3M,> 100 µM (inactive)
same,GI50,KM12,> 100 µM (inactive)
same,GI50,SW-620,> 100 µM (inactive)
same,GI50,K562,> 100 µM (inactive)
same,GI50,RXF 393,> 100 µM (inactive)
same,GI50,MOLT-4,> 100 µM (inactive)
same,GI50,UO-31,> 100 µM (inactive)
same,GI50,HOP-92,> 100 µM (inactive)
same,GI50,HCT-15,> 100 µM
same,GI50,SNB-19,> 100 µM (inactive)
same,GI50,HCC 2998,> 100 µM (inactive)
same,GI50,NCI-H460,> 100 µM (inactive)
same,GI50,SK-MEL-2,> 100 µM (inactive)
same,GI50,CAKI-1,> 100 µM (inactive)
same,GI50,EKVX,> 100 µM (inactive)
same,GI50,SK-MEL-5,> 100 µM (inactive)
same,GI50,SNB-75,22.1 µM (inactive)
same,GI50,OVCAR-4,> 100 µM (inactive)
same,GI50,HCT-116,> 100 µM (inactive)
same,GI50,SN12C,> 100 µM (inactive)
same,GI50,SNB-78,> 100 µM (inactive)
same,GI50,OVCAR-3,> 100 µM (inactive)
same,GI50,U-251,> 100 µM (inactive)
same,GI50,SK-MEL-28,> 100 µM (inactive)
same,GI50,HOP-62,> 100 µM (inactive)
same,GI50,HL-60,> 100 µM (inactive)
same,GI50,SF-539,> 100 µM (inactive)
same,GI50,OVCAR-8,> 100 µM (inactive)
same,GI50,786-0,> 100 µM (inactive)
same,GI50,NCI-H522,> 100 µM (inactive)
same,GI50,SK-OV-3,> 100 µM (inactive)
same,GI50,DLD-1,> 100 µM (inactive)
same,GI50,COLO 205,> 100 µM (inactive)
same,GI50,A549,> 100 µM (inactive)
same,GI50,NCI-H23,> 100 µM (inactive)
same,GI50,UACC-257,> 100 µM (inactive)
same,GI50,OVCAR-5,> 100 µM (inactive)
same,GI50,NCI-H226,> 100 µM (inactive)
same,GI50,M14,> 100 µM (inactive)
same,GI50,SF-295,> 100 µM (inactive)
same,GI50,LXFL 529,> 100 µM (inactive)
same,GI50,RPMI-8226,> 100 µM (inactive)
same,GI50,A498,> 100 µM (inactive)
same,GI50,M19-MEL,> 100 µM (inactive)
same,GI50,ACHN,> 100 µM (inactive)
same,GI50,DMS-114,> 100 µM (inactive)
same,GI50,HT-29,> 100 µM (inactive)
same,GI50,DMS-273,> 100 µM (inactive)
same,GI50,KM-20L2,> 100 µM (inactive)
same,GI50,IGROV-1,> 100 µM (inactive)
same,GI50,UACC-62,> 100 µM (inactive)
same,GI50,SF-268,> 100 µM (inactive)
CC(=O)Nc1[nH]c(=O)[nH]c(=O)c1N(C(C)=O)C(C)=O,GI50,CCRF-CEM,> 100 µM (inactive)
same,GI50,XF498,> 100 µM (inactive)
same,GI50,LOX IMVI,> 100 µM (inactive)
same,GI50,Malme-3M,> 100 µM (inactive)
same,GI50,KM12,> 100 µM (inactive)
same,GI50,SW-620,> 100 µM (inactive)
same,GI50,K562,> 100 µM (inactive)
same,GI50,RXF 393,> 100 µM (inactive)
same,GI50,MOLT-4,> 100 µM (inactive)
same,GI50,UO-31,> 100 µM (inactive)
same,GI50,HOP-92,> 100 µM (inactive)
same,GI50,HCT-15,> 100 µM
same,GI50,SNB-19,> 100 µM (inactive)
same,GI50,HCC 2998,> 100 µM (inactive)
same,GI50,NCI-H460,> 100 µM (inactive)
same,GI50,SK-MEL-2,> 100 µM (inactive)
same,GI50,CAKI-1,> 100 µM (inactive)
same,GI50,EKVX,> 100 µM (inactive)
same,GI50,SK-MEL-5,> 100 µM (inactive)
same,GI50,OVCAR-4,> 100 µM (inactive)
same,GI50,HCT-116,> 100 µM (inactive)
same,GI50,SN12C,> 100 µM (inactive)
same,GI50,SNB-78,> 100 µM (inactive)
same,GI50,OVCAR-3,> 100 µM (inactive)
same,GI50,U-251,> 100 µM (inactive)
same,GI50,SK-MEL-28,> 100 µM (inactive)
same,GI50,HL-60,> 100 µM (inactive)
same,GI50,SF-539,> 100 µM (inactive)
same,GI50,OVCAR-8,> 100 µM (inactive)
same,GI50,786-0,> 100 µM (inactive)
same,GI50,DLD-1,> 100 µM (inactive)
same,GI50,COLO 205,> 100 µM (inactive)
same,GI50,A549,> 100 µM (inactive)
same,GI50,UACC-257,> 100 µM (inactive)
same,GI50,OVCAR-5,> 100 µM (inactive)
same,GI50,NCI-H226,> 100 µM (inactive)
same,GI50,M14,> 100 µM (inactive)
same,GI50,SF-295,> 100 µM (inactive)
same,GI50,LXFL 529,> 100 µM (inactive)
same,GI50,RPMI-8226,> 100 µM (inactive)
same,GI50,A498,> 100 µM (inactive)
same,GI50,M19-MEL,> 100 µM (inactive)
same,GI50,ACHN,> 100 µM (inactive)
same,GI50,DMS-114,> 100 µM (inactive)
same,GI50,HT-29,> 100 µM (inactive)
same,GI50,DMS-273,> 100 µM (inactive)
same,GI50,KM-20L2,> 100 µM (inactive)
same,GI50,IGROV-1,> 100 µM (inactive)
same,GI50,UACC-62,> 100 µM (inactive)
same,GI50,SF-268,> 100 µM (inactive)
O=c1[nH]c2cccccc-2c1-c1nc2ccccc2[nH]1,GI50,CCRF-CEM,25.5 µM (inactive)
same,GI50,XF498,18.5 µM (inactive)
same,GI50,LOX IMVI,14.9 µM (inactive)
same,GI50,TK-10,92.7 µM (inactive)
same,GI50,Malme-3M,21.3 µM (inactive)
same,GI50,KM12,4.82 µM (inactive)
same,GI50,SW-620,69.5 µM (inactive)
same,GI50,K562,34.5 µM (inactive)
same,GI50,RXF 393,20.9 µM (inactive)
same,GI50,UO-31,31.1 µM (inactive)
same,GI50,HOP-92,25.8 µM (inactive)
same,GI50,HCT-15,21.9 µM
same,GI50,SR,34.2 µM (inactive)
same,GI50,SNB-19,21.2 µM (inactive)
same,GI50,HCC 2998,38.7 µM (inactive)
same,GI50,NCI-H460,7.01 µM (inactive)
same,GI50,SK-MEL-2,24.3 µM (inactive)
same,GI50,CAKI-1,20.4 µM (inactive)
same,GI50,EKVX,40.8 µM (inactive)
same,GI50,SK-MEL-5,18.7 µM (inactive)
same,GI50,SNB-75,12.2 µM (inactive)
same,GI50,OVCAR-4,20.6 µM (inactive)
same,GI50,HCT-116,19.8 µM (inactive)
same,GI50,SN12C,31.6 µM (inactive)
same,GI50,SNB-78,25.7 µM (inactive)
same,GI50,OVCAR-3,> 10 µM (inactive)
same,GI50,U-251,21.8 µM (inactive)
same,GI50,SK-MEL-28,20.3 µM (inactive)
same,GI50,HOP-62,39.8 µM (inactive)
same,GI50,HL-60,36.6 µM (inactive)
same,GI50,SF-539,22.4 µM (inactive)
same,GI50,OVCAR-8,26.5 µM (inactive)
same,GI50,786-0,18.2 µM (inactive)
same,GI50,NCI-H522,19.3 µM (inactive)
same,GI50,SK-OV-3,20.1 µM (inactive)
same,GI50,DLD-1,32.4 µM (inactive)
same,GI50,COLO 205,> 100 µM (inactive)
same,GI50,A549,25 µM (inactive)
same,GI50,NCI-H23,31.3 µM (inactive)
same,GI50,UACC-257,> 100 µM (inactive)
same,GI50,OVCAR-5,> 100 µM (inactive)
same,GI50,NCI-H226,11.1 µM (inactive)
same,GI50,M14,44.3 µM (inactive)
same,GI50,SF-295,30.5 µM (inactive)
same,GI50,LXFL 529,22.2 µM (inactive)
same,GI50,RPMI-8226,28.5 µM (inactive)
same,GI50,M19-MEL,34.2 µM (inactive)
same,GI50,ACHN,14.1 µM (inactive)
same,GI50,DMS-114,10.3 µM (inactive)
same,GI50,HT-29,52.2 µM (inactive)
same,GI50,DMS-273,15.5 µM (inactive)
same,GI50,KM-20L2,46.5 µM (inactive)
same,GI50,IGROV-1,32.7 µM (inactive)
same,GI50,UACC-62,17.9 µM (inactive)
same,GI50,SF-268,14.9 µM (inactive)
